Test results reported in publication PMC6768323, “Adverse Maternal, Fetal, and Postnatal Effects of Hexafluoropropylene Oxide Dimer Acid (GenX) from Oral Gestational Exposure in Sprague-Dawley Rats” (Environmental Health Perspectives, 2019).
“And” between values parts separate entries of the source, which are not always exact repeats. Equal values may be shown once.

How the values were obtained:
[1] = biological target: T1, human GR (Homo sapiens, UniProt P04150); assay: GR transcriptional activation, CV-1 cells; assay type: cell-based
T1 construct: expressed in transfected cells; host or cells: CV-1 cells (ATCC CCL-70), adenoviral transduction
T1 sequence (P04150 1-777): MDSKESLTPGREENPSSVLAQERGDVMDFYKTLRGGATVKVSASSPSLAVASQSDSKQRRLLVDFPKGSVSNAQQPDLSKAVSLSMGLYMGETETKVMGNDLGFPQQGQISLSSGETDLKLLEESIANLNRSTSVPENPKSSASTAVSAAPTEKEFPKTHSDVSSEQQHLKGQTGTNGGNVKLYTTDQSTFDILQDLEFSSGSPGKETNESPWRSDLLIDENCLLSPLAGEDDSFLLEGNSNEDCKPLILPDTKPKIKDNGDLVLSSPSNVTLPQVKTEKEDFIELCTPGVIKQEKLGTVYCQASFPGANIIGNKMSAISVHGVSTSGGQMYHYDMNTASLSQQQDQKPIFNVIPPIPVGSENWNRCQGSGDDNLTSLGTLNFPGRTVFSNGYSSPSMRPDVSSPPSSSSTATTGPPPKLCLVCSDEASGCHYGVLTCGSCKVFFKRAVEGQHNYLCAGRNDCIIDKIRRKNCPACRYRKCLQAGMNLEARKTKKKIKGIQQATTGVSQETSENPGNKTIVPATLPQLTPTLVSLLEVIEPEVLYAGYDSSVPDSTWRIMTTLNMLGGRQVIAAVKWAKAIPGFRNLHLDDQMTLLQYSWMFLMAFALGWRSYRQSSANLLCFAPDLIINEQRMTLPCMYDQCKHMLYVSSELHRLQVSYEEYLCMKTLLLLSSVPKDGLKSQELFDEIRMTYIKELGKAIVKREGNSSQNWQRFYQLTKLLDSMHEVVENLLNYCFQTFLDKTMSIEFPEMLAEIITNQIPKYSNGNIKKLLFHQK
Method: HFPO-DA was assessed for agonism and antagonism of transcriptional activation for estrogen (ER), androgen (AR), and glucocorticoid receptors (GR). Method details for in vitro transactivation assays for ER ([Wilson et al. 2004a]), AR ([Hartig et al. 2002], [2007]), and GR ([Conley et al. 2017]; [Medlock Kakaley et al. 2018]) have been previously reported. Briefly, for ER activity we utilized the stably transfected T47D-KBluc cell line [publicly available via American Type Culture Collection (ATCC); CRL-2865] according to protocols provided by ATCC with the modification of Dulbecco’s Modified Eagle Media (DMEM) as the cell culture media instead of Roswell Park Memorial Institute (RPMI) media. […] All assays were run in 96-well plates and luminescence was detected using a BMG Fluostar Omega luminometer (BMG Labtech) following 24-h exposure. […] Cellular cytotoxicity across the dosing range was determined for CV-1 cells utilizing the 3-(4,5-dimethylthiazol-2-yl)-2,5-diphenyltetrazolium bromide (MTT) dye ([Mosmann 1983]). HFPO-DA was analyzed using n=2–3 biological replicate assay plates (i.e., unique cell passages) with four technical replicates per treatment per plate. […]

[2] = system: pregnant Sprague-Dawley rats; assay: Maternal serum thyroid hormones and lipid panel; assay type: in vivo
Method: Maternal serum samples from the first two blocks were analyzed for thyroid hormones and a standard lipid panel. Total triiodothyronine ( T3 ) and thyroxine ( T4 ) were quantified by radioimmunoassay (RIA) according to manufacturer specifications (IVD Technologies). […] Thyroid hormone RIA values were considered below detection when specific binding ( B/B0 ) was ≥90% ( 0.2 ng/mL for T3 and 2 ng/mL for T4 ) ([Sui and Gilbert 2003]). Serum total cholesterol, high-density lipoproteins (HDL), low-density lipoproteins (LDL), and triglycerides were quantified using a Beckman Coulter AU480 clinical chemistry analyzer (Beckman Coulter, Inc.) as per manufacturer’s protocol. All reagents were obtained from the instrument manufacturer except for the LDL assay, which was obtained from Diazyme Laboratories.

[3] = system: CV-1 cells; assay: MTT cytotoxicity; assay type: cell-based
Method: HFPO-DA was assessed for agonism and antagonism of transcriptional activation for estrogen (ER), androgen (AR), and glucocorticoid receptors (GR). Method details for in vitro transactivation assays for ER ([Wilson et al. 2004a]), AR ([Hartig et al. 2002], [2007]), and GR ([Conley et al. 2017]; [Medlock Kakaley et al. 2018]) have been previously reported. Briefly, for ER activity we utilized the stably transfected T47D-KBluc cell line [publicly available via American Type Culture Collection (ATCC); CRL-2865] according to protocols provided by ATCC with the modification of Dulbecco’s Modified Eagle Media (DMEM) as the cell culture media instead of Roswell Park Memorial Institute (RPMI) media. […] All assays were run in 96-well plates and luminescence was detected using a BMG Fluostar Omega luminometer (BMG Labtech) following 24-h exposure. […] Cellular cytotoxicity across the dosing range was determined for CV-1 cells utilizing the 3-(4,5-dimethylthiazol-2-yl)-2,5-diphenyltetrazolium bromide (MTT) dye ([Mosmann 1983]). HFPO-DA was analyzed using n=2–3 biological replicate assay plates (i.e., unique cell passages) with four technical replicates per treatment per plate.

O=C(O)C(F)(OC(F)(F)C(F)(F)C(F)(F)F)C(F)(F)F (stereo not shown) [HFPO-DA, Hexafluoropropylene oxide dimer acid]
glucocorticoid receptor agonism ([1]; 100 pM to 100 μM): no androgen or glucocorticoid receptor agonism | glucocorticoid receptor antagonism, reduction in luciferase expression ([1]; 100 μM, versus 1 nM Dex): 28±3% | serum total T3 in the top two dose levels ([2]; 250 and 500 mg/kg/d): < 0.2 ng/mL | Dam serum HDL ([2]; GD18, 1-500 mg/kg/d): 36.3 ± 3.7 mg/dL and 36.0 ± 2.5 mg/dL and 33.0 ± 3.6 mg/dL and 37.0 ± 1.2 mg/dL and 36.7 ± 4.7 mg/dL and 28.7 ± 3.2 mg/dL and 19.3 ± 2.7 mg/dL | Dam serum LDL ([2]; GD18, 1-500 mg/kg/d): 14.7 ± 0.9 mg/dL and 14.0 ± 1.2 mg/dL and 12.7 ± 0.9 mg/dL and 12.3 ± 1.9 mg/dL and 13.3 ± 1.9 mg/dL and 19.0 ± 3.2 mg/dL and 14.7 ± 0.3 mg/dL and 14.0 ± 0.6 mg/dL | dose with lower maternal serum thyroid hormone and lipid profiles ([2]; oral GD14-18): ≥ 30 mg/kg | dose with significantly lower serum total T3 ([2]; rat, in vivo): ≥ 30 mg/kg | dose with significantly lower serum triglycerides ([2]; rat, in vivo): 500 mg/kg | dose with significantly lower total T4 and LDL ([2]; rat, in vivo): ≥ 125 mg/kg | cytotoxic dose [3]: 300 µM
